Reference: patent US9440957B2, “Compounds and compositions for modulating EGFR Activity” (Novartis AG, priority 2012, dated 2016)
Where two headings read alike, the source gives them in different places.

How the values were obtained:
HaCaT (EGFR WT) = HaCaT (EGFR WT) (Homo sapiens, UniProt P00533); assay: EGFR target modulation in HaCaT (EGFR-WT) cell line (phospho-EGFR Y1173 ELISA); format: cell-based; conditions: value in parentheses
Method: EGFR Target Modulation in HaCaT (EGFR-WT) Cell Line Tissue Culture. […] The serial diluted compounds were transferred to the plate containing cells by using a 50 nl Pin Head device (Perkin Elmer) and the cells were placed back in the incubator for 3 hours. […] Phospho-EGFR ([…]) ELISA. Solid white high-binding ELISA plates (Greiner #781074) were coated with 5 ug/ml anti-EGFR capture antibody (R&D Systems #AF231) overnight in 50 mM carbonate/bicarbonate pH 9.5 buffer. […] Wash steps were carried out with a Bio-Tek ELx405 SelectTM using 4 cycles of 100 ul TBS-T (20 mM Tris, 137 mM NaCl, 0.05% Tween-20) per well. […] Lysis was allowed to occur for 20 minutes on ice. A 25 ul aliquot was added to each well of the blocked ELISA plate and incubated overnight at 4° C. with gentle shaking. […] After washing, 1:2,000 anti-rabbit-HRP (Cell Signaling #7074) in 0.2% BSA/TBS-T was added and incubated for 1 hour at room temperature. Chemiluminescent detection was carried out with SuperSignal ELISA Pico substrate (ThermoScientific #37069). Signal was read on EnVision plate reader using built-in UltraLUM setting. Data Analysis. Control cells treated with EGF were set to 100% maximum response. […] With these parameters, the IC50's for each compound in each cell line was calculated using non-linear curve fitting analysis.

H3255 (EGFR L858R) = H3255 (EGFR L858R) (Homo sapiens, UniProt P00533, L858R); assay: EGFR target modulation in H3255 cell line (phospho-EGFR Y1173 ELISA); format: cell-based
Sequence of H3255 (EGFR L858R) (P00533 25-1210 L858R): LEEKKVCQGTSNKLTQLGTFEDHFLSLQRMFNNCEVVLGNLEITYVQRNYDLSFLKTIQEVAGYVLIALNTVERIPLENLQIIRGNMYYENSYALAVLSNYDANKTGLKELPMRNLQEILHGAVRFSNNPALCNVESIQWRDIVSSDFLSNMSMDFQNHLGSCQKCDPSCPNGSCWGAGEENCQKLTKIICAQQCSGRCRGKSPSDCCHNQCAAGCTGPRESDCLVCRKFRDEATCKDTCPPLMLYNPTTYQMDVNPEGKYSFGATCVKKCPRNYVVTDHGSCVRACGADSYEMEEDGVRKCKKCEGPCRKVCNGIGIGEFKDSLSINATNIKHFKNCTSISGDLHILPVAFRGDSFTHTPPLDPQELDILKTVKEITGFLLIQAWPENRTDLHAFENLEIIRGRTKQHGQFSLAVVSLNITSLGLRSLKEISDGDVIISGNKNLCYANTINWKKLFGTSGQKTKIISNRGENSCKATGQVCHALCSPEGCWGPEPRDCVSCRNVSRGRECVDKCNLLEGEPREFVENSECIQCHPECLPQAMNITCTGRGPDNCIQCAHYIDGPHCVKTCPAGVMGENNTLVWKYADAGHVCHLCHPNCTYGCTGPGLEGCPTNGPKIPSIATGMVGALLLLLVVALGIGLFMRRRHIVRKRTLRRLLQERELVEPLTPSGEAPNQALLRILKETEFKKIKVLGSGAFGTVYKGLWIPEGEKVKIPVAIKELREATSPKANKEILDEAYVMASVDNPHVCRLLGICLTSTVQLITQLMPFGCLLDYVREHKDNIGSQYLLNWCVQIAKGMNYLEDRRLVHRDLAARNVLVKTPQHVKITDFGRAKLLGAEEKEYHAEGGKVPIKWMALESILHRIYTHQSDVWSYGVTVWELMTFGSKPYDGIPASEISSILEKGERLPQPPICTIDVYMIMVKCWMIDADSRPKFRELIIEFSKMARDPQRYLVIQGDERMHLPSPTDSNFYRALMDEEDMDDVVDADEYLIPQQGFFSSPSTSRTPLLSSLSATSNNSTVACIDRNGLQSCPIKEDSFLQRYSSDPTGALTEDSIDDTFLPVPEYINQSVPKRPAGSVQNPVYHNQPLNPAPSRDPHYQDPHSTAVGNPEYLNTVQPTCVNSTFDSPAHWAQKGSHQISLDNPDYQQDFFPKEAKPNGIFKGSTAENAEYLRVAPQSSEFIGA
Method in brief: (§1)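 pY1173 was measured by sandwich ELISA with anti-EGFR capture and chemiluminescent read-out. Before lysis, each cell line (HCC827, H1975, H3255) was treated with compound for 3 hours. IC50 derived by non-linear fit, normalised to EGF-stimulated controls as maximum.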

EGFR(L858R/T790M) = molecular target: T1, EGFR(L858R/T790M) (Homo sapiens, UniProt P00533, L858R/T790M); assay: EGFR biochemical assay (HTRF), IC50 determinations
T1 construct: purchased from Carna (GST-a.a. 669-1210)
Method in brief: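 Two formats were run: compound preincubated at room temperature with enzyme and biotin-TK peptide before ATP starts the reaction, or no preincubation with enzyme added last. Reactions ran 60 min at room temperature and were stopped with EDTA. Phosphopeptide was read by HTRF (PT66K/SAXL, 1 h).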

H1975 (EGFR L858/T790M) = H1975 (EGFR L858/T790M) (Homo sapiens, UniProt P00533, L858R/T790M); assay: EGFR target modulation in H1975 cell line (phospho-EGFR Y1173 ELISA); format: cell-based
Method in brief: as §1

[1] = molecular target: human EGFR L858R/T790M (NIH/3T3 cells) (Homo sapiens, UniProt P00533, L858R/T790M); assay: EGFR target modulation in engineered NIH/3T3 cell lines (phospho-EGFR Y1068 AlphaLISA), EGFR L858R/T790M; format: cell-based; conditions: engineered NIH/3T3 cells, read-out: NIH3T3 IC50 (μM) EGFR (L858R/T790M)
Method in brief: (§2)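 Engineered NIH/3T3 cells were plated overnight, then exposed to a 12-point 1:3 compound series (from a 10 μM stock) for 3 hours at 37 °C. WT-expressing cells alone were stimulated with 50 ng/ml EGF for 5 minutes before lysis. IC50s came from non-linear fits of AlphaLISA signal.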

[2] = molecular target: human EGFR L858R (NIH/3T3 cells) (Homo sapiens, UniProt P00533, L858R); assay: EGFR target modulation in engineered NIH/3T3 cell lines (phospho-EGFR Y1068 AlphaLISA), EGFR L858R; format: cell-based; conditions: engineered NIH/3T3 cells, read-out: NIH3T3 IC50 (μM) EGFR (L858R)
Sequence of human EGFR L858R (NIH/3T3 cells) (P00533 25-1210 L858R): as above
Method in brief: as §2

HEKn (EGFR WT) = HEKn (EGFR WT) (Homo sapiens, UniProt P00533); assay: EGFR target modulation in HEKn (EGFR-WT) cell line (phospho-EGFR Y1173 ELISA); format: cell-based; conditions: value outside parentheses
Method in brief: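 Read-out was Y1173 phosphorylation, measured by chemiluminescent ELISA with anti-EGFR capture of lysates. HEKn keratinocytes (wild-type EGFR) were treated with compound for 3 h.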

[3] = molecular target: human EGFR WT (NIH/3T3 cells, EGF-induced) (Homo sapiens, UniProt P00533); assay: EGFR target modulation in engineered NIH/3T3 cell lines (phospho-EGFR Y1068 AlphaLISA), EGFR WT; format: cell-based; conditions: engineered NIH/3T3 cells, read-out: NIH3T3 IC50 (μM) EGFR (WT)
Sequence of human EGFR WT (NIH/3T3 cells, EGF-induced) (P00533 25-1210): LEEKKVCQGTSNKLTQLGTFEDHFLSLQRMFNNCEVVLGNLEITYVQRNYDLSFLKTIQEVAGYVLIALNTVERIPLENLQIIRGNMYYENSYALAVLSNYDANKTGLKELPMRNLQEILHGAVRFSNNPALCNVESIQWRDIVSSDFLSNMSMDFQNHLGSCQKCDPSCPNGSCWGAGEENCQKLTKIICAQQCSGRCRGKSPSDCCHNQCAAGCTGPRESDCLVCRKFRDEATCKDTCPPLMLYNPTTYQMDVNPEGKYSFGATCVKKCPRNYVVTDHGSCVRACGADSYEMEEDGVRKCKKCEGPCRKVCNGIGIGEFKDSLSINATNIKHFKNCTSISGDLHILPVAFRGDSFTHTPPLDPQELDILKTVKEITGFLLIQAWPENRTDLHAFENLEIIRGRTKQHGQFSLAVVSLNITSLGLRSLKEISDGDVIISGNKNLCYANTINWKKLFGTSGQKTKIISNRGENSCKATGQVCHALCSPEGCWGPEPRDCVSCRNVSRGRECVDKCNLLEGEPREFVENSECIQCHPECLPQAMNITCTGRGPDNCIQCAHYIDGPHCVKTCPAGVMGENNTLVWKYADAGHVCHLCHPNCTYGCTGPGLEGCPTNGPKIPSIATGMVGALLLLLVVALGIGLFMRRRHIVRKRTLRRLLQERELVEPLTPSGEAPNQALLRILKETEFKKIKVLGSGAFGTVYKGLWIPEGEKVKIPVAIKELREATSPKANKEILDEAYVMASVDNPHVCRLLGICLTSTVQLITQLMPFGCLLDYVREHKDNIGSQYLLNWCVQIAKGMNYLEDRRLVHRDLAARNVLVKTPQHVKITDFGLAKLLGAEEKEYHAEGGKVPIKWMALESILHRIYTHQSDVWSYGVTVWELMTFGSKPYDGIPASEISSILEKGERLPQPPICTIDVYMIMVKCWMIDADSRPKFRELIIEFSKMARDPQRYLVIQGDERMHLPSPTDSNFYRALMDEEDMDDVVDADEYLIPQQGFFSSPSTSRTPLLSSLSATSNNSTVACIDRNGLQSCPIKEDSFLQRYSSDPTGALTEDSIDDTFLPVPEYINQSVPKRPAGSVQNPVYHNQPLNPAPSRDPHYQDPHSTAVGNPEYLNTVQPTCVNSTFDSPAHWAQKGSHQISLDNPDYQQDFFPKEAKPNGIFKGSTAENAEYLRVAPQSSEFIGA
Method in brief: as §2

HCC827 (Del E746-A750) = HCC827 (Del E746-A750) (Homo sapiens, UniProt P00533, DEL746-750); assay: EGFR target modulation in HCC827 cell line (phospho-EGFR Y1173 ELISA); format: cell-based
Method: EGFR Target Modulation in H1975, H3255 and HCC827 Cell Lines Tissue Culture. Cells were maintained in 10% FBS/RPMI supplemented with 100 μg/ml Penicillin/Streptomycin (Hyclone #SH30236.01). […] The cells were allowed to incubate overnight in a 37° C., 5% CO2 humidified tissue culture incubator. […] The serial diluted compounds were transferred to the plate containing cells by using a 50 nl Pin Head device (Perkin Elmer) and the cells were placed back in the incubator for 3 hours. Phospho-EGFR ([…]) Target Modulation Assay. The media was reduced to 20 ul using a Bio-Tek ELx 405 SelectTM plate washer. […] The plates were shaken at 4° C. for 20 minutes. An aliquot of 25 ul from each well was transferred to pEGFR(Y1173) ELISA plates for analysis. Phospho-EGFR ([…]) ELISA. Solid white high-binding ELISA plates (Greiner #781074) were coated with 5 ug/ml anti-EGFR capture antibody (R&D Systems #AF231) overnight in 50 mM carbonate/bicarbonate pH 9.5 buffer. Plates were blocked with 1% BSA (Sigma #A7030) in PBS for 1 hour at room temperature. Wash steps were carried out with a Bio-Tek ELx405 SelectTM using 4 cycles of 100 ul TBS-T (20 mM Tris, 137 mM NaCl, 0.05% Tween-20) per well. […] Lysis was allowed to occur for 20 minutes on ice. A 25 ul aliquot was added to each well of the blocked ELISA plate and incubated overnight at 4° C. with gentle shaking. […] After washing, 1:2,000 anti-rabbit-HRP (Cell Signaling #7074) in 0.2% BSA/TBS-T was added and incubated for 1 hour at room temperature. Chemiluminescent detection was carried out with SuperSignal ELISA Pico substrate (ThermoScientific #37069). Signal was read on EnVision plate reader using built-in UltraLUM setting. Data Analysis. Control cells treated with EGF were set to 100% maximum response. […] With these parameters, the IC50's for each compound in each cell line was calculated using non-linear curve fitting analysis.

[4] = EGFR (L858R/T790M) with 90 min pre-incubation, read-out: IC50 (μM) Column B
[5] = EGFR (L858R/T790M) with no pre-incubation, read-out: IC50 (μM) Column A

Sequence of HaCaT (EGFR WT) (P00533 25-1210): as above

IC50 (HaCaT (EGFR WT)) [nM] | IC50 (H3255 (EGFR L858R)) [nM] | IC50 (EGFR(L858R/T790M); [4]) [µM] | IC50 (EGFR(L858R/T790M); [5]) [µM] | IC50 (H1975 (EGFR L858/T790M)) [nM] | IC50 [1] [µM] | IC50 [2] [µM] | IC50 (HEKn (EGFR WT)) [nM] | IC50 [3] [µM] | IC50 (HCC827 (Del E746-A750)) [nM] | SMILES
> 10000 | 2000 | 0.117 | 1.67 | 935 | – | – | – | – | – | Cc1cc(C(=O)Nc2nc3cccc(Cl)c3n2[C@H]2CCCCN(C(=O)/C=C/CN(C)C)C2)cc(C)n1 [Example 17-197]
59 | 3 | < 0.001 | 0.004 | 2 | – | – | – | – | – | Cc1cc(C(=O)Nc2nc3cccc(Cl)c3n2[C@@H]2CCCCN(C(=O)/C=C/CNC(C)(C)C)C2)ccn1 [Example 17-191]
> 10000 | 6400 | 1.2 | 0.676 | 3480 | – | – | – | – | – | Cc1cc(C(=O)Nc2nc3cccc(Cl)c3n2[C@@H]2CCCCN(C(=O)C3=CCN(C)CC3)C2)ccn1 [Example 3-17]
> 10000 | 1540 | 0.572 | 6.05 | > 10000 | – | – | – | – | – | CN(C)C/C=C/C(=O)N1CCCCC(n2c(NC(=O)c3ccnc(P(C)(C)=O)c3)nc3cccc(Cl)c32)C1 (single isomer, unassigned) [Example 21-10A]
> 10000 | 2530 | 0.36 | 0.352 | 899 | – | – | – | – | – | Cc1cc(C(=O)Nc2nc3cccc(Cl)c3n2[C@@H]2CCCCN(C(=O)C3=CCCN(C)C3)C2)ccn1 [Example 3-16]
– | 4 | < 0.001 | 0.003 | 2 | 0.001 | 0.001 | 265 | 0.081 | < 1 | C=CC(=O)N1CCCC[C@@H](n2c(NC(=O)c3cc(C)nc(C)c3)nc3cc(CN4CCCC4)cc(C)c32)C1 [Example 17-113]
– | 199 | 0.004 | 0.115 | 22 | 0.017 | 0.174 | > 10000 | > 10 | 291 | C=CC(=O)N1CCC[C@@H](n2c(NC(=O)c3cccc(C(F)(F)F)c3)nc3cc(COCC)ccc32)C1 [Example 17-123]
– | 22 | < 0.001 | 0.01 | 25 | 0.032 | 0.018 | 1250 | 0.114 | 18 | Cc1cc(C(=O)Nc2nc3cccc(Cl)c3n2[C@@H]2CCCCN(C(=O)/C=C/CN3CC[C@@H](O)C3)C2)ccn1 [Example 3-6]
– | 2 | < 0.001 | 0.001 | < 1 | < 0.001 | < 0.001 | 65 | 0.024 | < 1 | C=CC(=O)N1CCCC[C@@H](n2c(NC(=O)c3ccnc(C)c3)nc3cc(CN4CCCC4)cc(C)c32)C1 [Example 17-126]
– | 1 | < 0.001 | 0.002 | < 1 | < 0.001 | < 0.001 | 72 | 0.029 | < 1 | C=CC(=O)N1CCCC[C@@H](n2c(NC(=O)c3ccnc(C)c3)nc3cc(CN4CCCCC4)cc(C)c32)C1 [Example 17-144]
– | 320 | 0.011 | 0.156 | 249 | 0.174 | 0.157 | 6400 | > 7.6 | 108 | Cc1cc(C(=O)Nc2nc3cccc(Cl)c3n2[C@@H]2CCCCN(C(=O)/C=C/CN3CCC(F)(F)C3)C2)ccn1 [Example 3-3]
– | 2 | < 0.001 | < 0.001 | 1 | < 0.001 | < 0.001 | 98 | 0.019 | < 1 | Cc1cccc2nc(NC(=O)c3ccnc(OC(F)F)c3)n([C@@H]3CCCCN(C(=O)/C=C/CN(C)C)C3)c12 [Example 17-103]
– | 390 | < 0.001 | 0.062 | 16 | 0.02 | 0.176 | > 10000 | > 10 | 90 | C=CC(=O)N1CCC[C@@H](n2c(NC(=O)c3cccc(C(F)(F)F)c3)nc3cc(COC)ccc32)C1 [Example 17-122]
– | 34 | < 0.001 | 0.01 | 16 | 0.002 | 0.004 | 1520 | 0.34 | 7 | Cc1cc(C(=O)Nc2nc3cccc(Cl)c3n2[C@@H]2CCCCN(C(=O)/C=C/CN(C)C)C2)cc(C)n1 [Example 6, (R,E)-N-(7-chloro-1-(1-(4-(dimethylamino)but-2-enoyl)azepan-3-yl)-1H-benzo[d]imidazol-2-yl)-2,6-dimethylisonicotinamide]
– | 90 | 0.005 | 0.084 | 86 | 0.148 | 0.111 | 4500 | 7.3 | 40 | Cc1cc(C(=O)Nc2nc3cccc(Cl)c3n2[C@@H]2CCCCN(C(=O)/C=C/CN3CC(F)(F)C3)C2)ccn1 [Example 3-15]
– | 33 | < 0.001 | 0.012 | 5 | 0.011 | 0.081 | 730 | > 10 | 14 | C=CC(=O)N1CCCCC(n2c(NC(=O)c3cccc(C(F)(F)F)c3)nc3cc(C)ccc32)C1 (stereo not shown) [Example 17-1]
– | 2 | < 0.001 | 0.001 | 1 | 0.001 | < 0.001 | 95 | 0.026 | < 1 | C=CC(=O)N1CCCC[C@@H](n2c(NC(=O)c3ccnc(C)c3)nc3cc(CN4CCC4)cc(C)c32)C1 [Example 17-145]
